{
  "source": "patent US20160199361A1",
  "about": "“Method of Inducing An Anti-Retroviral Immune Response By Counter-Acting Retro-Virus Induced Anti-Apoptosis” (RUTGERS, THE STATE UNIVERSITY OF NEW JERSEY, priority 2013, published 2016)",
  "key": {"uninfected PBMCs": {"system": "uninfected PBMCs", "experiment": "Apoptotic DNA fragmentation (TUNEL) in non-replenished short-term uninfected PBMC cultures", "format": "cell-based, human", "settings": "30 μM, 144 hours", "description": "(§1) Reagents and cells. Drug-grade deferiprone was kindly provided by Apotex (Toronto, Canada). PBMCs were isolated from the blood of healthy donors, per an IRB-approved protocol, and stimulated overnight with phytohemagglutinin (PHA) and human IL-2. […] Cultures were incubated at 37° C., 5% CO2, and 95% humidity. DNA fragmentation assay. Apoptotic DNA fragmentation was quantified flow-cytometrically, using a TUNEL (terminal deoxynucleotide transferase dUTP nick end-labeling) assay (APO-BRDU™; Phoenix Flow Systems; San Diego, Calif.)."}, "[1]": {"system": "PBMCs acutely infected with HIV-1", "experiment": "Apoptotic DNA fragmentation (TUNEL) in non-replenished short-term PBMC cultures infected with HIV-1 isolate", "format": "cell-based, human", "description": "as §1"}, "[2]": {"system": "clinical isolates of HIV-1", "experiment": "HIV-1 p24 and HIV-1 RNA in isolate-infected, long-term replenished primary cell (PBMC) cultures", "format": "cell-based", "settings": "for number of infective virions produced: use without interruption for up to three weeks, unchanged at least three months after discontinuation; for p24 relative to controls: within two weeks, PBMCs stably infected with clinical isolates", "description": "Reagents and cells. Drug-grade deferiprone was kindly provided by Apotex (Toronto, Canada). PBMCs were isolated from the blood of healthy donors, per an IRB-approved protocol, and stimulated overnight with phytohemagglutinin (PHA) and human IL-2. Stimulated cells were pelleted and resuspended for culture at a final concentration of 0.5×10^6 cells/ml in PHA-free RPMI 1640 medium containing 10% fetal calf serum (v/v), 100 units/ml penicillin G, 100 μg/ml streptomycin, 2 mM […], and 3.5 ng/ml human IL-2 (Medium B). Cultures were incubated at 37° C., 5% CO2, and 95% humidity.\nTo obtain clinical isolates of HIV-1, donors were consented to provide blood samples per an IRB-approved protocol. For infection, 5×10^6 uninfected stimulated PBMCs were co-cultured with 10×10^6 PBMCs from one of the HIV-infected donors in Medium B. On day 3, half of the supernatant was removed and replenished with an equal volume of fresh Medium B. On day 7, the medium was likewise replenished and 7.5×10^6 stimulated uninfected PBMCs were added. On days 10, 17, and 24, half of the supernatant was replenished. On days 14, 21, and 28, stimulated uninfected PBMCs were added. Cells were harvested when p24 reached 250 pg/ml, cryopreserved in freezing medium (90% fetal calf serum, 10% dimethyl sulfoxide), and stored in liquid nitrogen as infected PBMC stock. Cell-free supernatants were stored at −80° C.\n(§2) To establish persistent infection of cultured PBMCs, uninfected cells (5×10^6 cells) and infected PBMC stock (0.5×10^6 cells) were co-incubated in a 25 ml culture flask at a final concentration of 0.22×10^6 cells/ml. Cultures were allowed to establish productive infection, defined by medium p24 at or above 250 pg/ml, and deferiprone was added. Cultures were replenished with Medium B and freshly isolated uninfected PBMCs on alternate days. For replacement of Medium B, half of the supernatant was gently exchanged without disturbing the cells, and the drug concentration was adjusted appropriately. For replacement with freshly isolated, stimulated and uninfected PBMCs, half of the cells and supernatant were removed and replaced with 2.5×10^6 cells in the proper volume of Medium B, with adjustment of the drug concentration. Cell-free supernatants were saved for p24 and viral RNA measurements.\n(§3) Detection of p24, viral RNA, and viral DNA. p24 core antigen in the supernatant was quantified by ELISA (Retrotek HIV-1 p24™; ZeptoMetrix Corp.; Buffalo, N.Y.). HIV-1 RNA copy number in the supernatant of PBMC cultures and in plasma of patients enrolled in the exploratory deferiprone trial was determined with a PCR-based and FDA-approved assay (Amplicor HIV-1 Monitor™; Roche Diagnostics Corp.; Indianapolis, Ind.). For clinical samples, the assay was used per the Standard Specimen Processing Procedure (sensitivity limit 400 copies/ml); for cell culture samples, the assay was used in both the Standard Specimen Processing and the UltraSensitive Specimen Processing Procedure (sensitivity limit 50 copies/ml). The Roche Amplicor HIV-1 DNA Test (Roche Diagnostics Corp.; Indianapolis, Ind.) was used for qualitative detection of HIV-1 DNA."}, "HIV-1 DNA": {"system": "HIV-1 DNA", "experiment": "Qualitative detection of HIV-1 DNA in infected replenished PBMC cultures", "format": "cell-based", "settings": "200 μM, 10 days of post-cessation monitoring", "description": "as §2\nDetection of p24, viral RNA, and viral DNA. p24 core antigen in the supernatant was quantified by ELISA (Retrotek HIV-1 p24™; ZeptoMetrix Corp.; Buffalo, N.Y.). HIV-1 RNA copy number in the supernatant of PBMC cultures and in plasma of patients enrolled in the exploratory deferiprone trial was determined with a PCR-based and FDA-approved assay (Amplicor HIV-1 Monitor™; Roche Diagnostics Corp.; Indianapolis, Ind.). […]"}, "HIV-1 [3]": {"system": "HIV-1", "experiment": "Exploratory pilot trial: plasma HIV-1 RNA in HIV-1-infected treatment-naive persons", "format": "in vivo, human", "description": "as §3\nTwo oral dose levels of deferiprone were tested, 33 mg/kg (33 mg/kg QD on days 1 and 7, and 33 mg/kg TID on days 2-6 [seven asymptomatic HIV-infected antiretroviral-naive persons]) and 50 mg/kg (50 mg/kg QD on days 1 and 7, and 50 mg/kg TID on days 2-6 [six healthy volunteers and seven asymptomatic HIV-infected antiretroviral-naive persons, four of whom completed the treatment period]).\nEach cohort was unblinded only at study completion. […] Secondary parameters included pharmacokinetic variables (e.g. peak serum concentration) in serum, drawn after initial drug ingestion at fixed hours (0, 0.5, 1, 1.5, 2, 3, 4, 6, 9, 12). […] Viral load was measured as described above.\nFor the cell culture experiments with deferiprone and the exploratory clinical trial, descriptive statistics were generated using Microsoft Excel 2011. In the exploratory trial, outcome analysis was performed to assess the intercohort and intraindividual virological response to deferiprone, using Student's t-test for log10-based analysis of the time-specified differentials (Δ log) between the cohort identified medians (±standard error of the mean [SEM]) generated from the multiple measurements per subject on treatment minus before treatment. (‘response’ in the first stage of the protocol) and off treatment minus before treatment (‘rebound’ in the second stage of the treatment). P<0.05 was used as criterion for statistical significance. […] To assess the in vivo antiretroviral activity of deferiprone in a hypothesis-independent manner, the Δ log of the HIV-1 RNA levels achieved in the first and the second stage of the protocol was analyzed after post-treatment segregation into ‘responders’ and ‘non-responders’ per the discontinuation trial design (DTD)."}, "PBMCs": {"system": "PBMCs", "experiment": "Cell viability and apoptotic volume decrease by trypan blue image analysis in replenished PBMC cultures", "format": "cell-based, human", "settings": "200 μM", "description": "Quantitation of cell number, viability, diameter, and apoptotic volume decrease. These parameters were measured in PBMC cultures by computerized image analysis of trypan blue exclusion (VI-CELL™; Beckman Coulter; Fullerton, Calif.)."}, "infected T-cell lines": {"system": "infected T-cell lines", "experiment": "Suppression of HIV-1 generation and selective induction of apoptosis in infected T-cell lines", "format": "cell-based"}, "HIV-1 [4]": {"system": "HIV-1", "settings": "zidovudine monotherapy, reference range; cited from earlier work"}},
  "note": "Entries after “also recorded” stand apart in the source; their conditions may differ.",
  "data": [
    {"compound": "Cc1cc(C2CCCCC2)n(O)c(=O)c1", "note": "[ciclopirox]", "values": [
      {"measurement": "cells with fragmented DNA (apoptotic), uninfected treated cultures", "setting": "uninfected PBMCs", "result": "24.1±3.2", "unit": "%"},
      {"measurement": "cells with fragmented DNA (apoptotic), infected treated cultures", "setting": "[1]; 30 μM, 144 hours after inoculation", "result": "71.8±8.8", "unit": "%"},
      {"measurement": "number of infective virions produced", "setting": "[2]", "result": "undetectable levels"}
    ]},
    {"compound": "Cc1c(O)c(=O)ccn1C", "note": "[deferiprone, 3-hydroxy-1,2-dimethylpyridin-4(1H)-one]", "values": [
      {"measurement": "HIV-1 DNA in post-treatment cultures", "setting": "HIV-1 DNA", "result": "either negative or at the lower limit of detectability"},
      {"measurement": "Δ log10 HIV-1 RNA, acute decline coinciding with peak concentrations ≧150 μM", "setting": "HIV-1 [3]; 50 mg/kg po TID group", "result": "−0.44±0.1", "unit": "log10"},
      {"measurement": "Δ log10 HIV-1 RNA D7 vs. D1, subjects with acute viral load decline", "setting": "HIV-1 [3]; Group A, the 6 of 7 with decline", "result": "−0.42±0.05", "unit": "log10"},
      {"measurement": "subjects with acute viral load decline", "setting": "HIV-1 [3]; Group A, ≧150 μM in serum", "result": "6 of 7"},
      {"measurement": "Δ log10 HIV-1 RNA D7 vs. D1", "setting": "HIV-1 [3]; Group A, ≧150 μM in serum, 33 or 50 mg/kg po TID, N=7", "result": "−0.40±0.1", "unit": "log10"},
      {"measurement": "Δ log10 HIV-1 RNA D7 vs. D1", "setting": "HIV-1 [3]; Group B, did not achieve ≧150 μM in serum, deferiprone N=4", "result": "+0.17±0.07 log10"},
      {"measurement": "difference responders vs non-responders, Δ log10 D7 vs. D1", "setting": "HIV-1 [3]; end of first stage, 6 responders, 5 non-responders", "result": 0.64, "unit": "log10"},
      {"measurement": "difference responders vs non-responders, Δ log D53 vs. D1", "setting": "HIV-1 [3]; end of second stage, 5 responders, 5 non-responders, off drug", "result": 0.54, "unit": "log"},
      {"measurement": "duration of persistent off-drug suppression as multiple of drug half-life", "setting": "HIV-1 [3]; off-drug, human", "result": "≥ 200", "unit": "times the half-life"},
      {"measurement": "antiretrovirally effective in vivo threshold (serum concentration)", "setting": "HIV-1 [3]; serum, 11 treated subjects, P=0.0152 Fisher's Exact test", "result": "≥ 150", "unit": "µM"},
      {"measurement": "acute responders that did not reacquire viral load baseline", "setting": "HIV-1 [3]; seven weeks post-treatment after one-week pulse", "result": 80, "unit": "%"},
      {"measurement": "apoptotic volume decrease", "setting": "PBMCs", "result": "not detectable"},
      {"measurement": "viability (trypan blue)", "setting": "PBMCs", "result": "≥ 95", "unit": "%"},
      {"measurement": "concentration required for effective suppression of HIV-1 generation and selective induction of apoptosis", "setting": "infected T-cell lines", "result": "at least 150 μM"},
      {"measurement": "induced apoptosis in infected versus uninfected PBMCs", "setting": "[1]; 200 μM, non-replenished short-term cultures", "result": "significantly (P≦0.009) exceeded that in uninfected PBMCs"},
      {"measurement": "rate of viral RNA rebound after cessation of drug", "setting": "[2]; 100 μM, 35 days of treatment", "result": "+0.24 log10/ml/day"},
      {"measurement": "decrease of viral copy number versus set-point of controls", "setting": "[2]; 100 μM, infected replenished cultures, weeks of treatment", "result": "decreased by just one log"},
      {"measurement": "p24 relative to controls", "setting": "[2]; 100 μM", "result": "≤ 10 % of controls"},
      {"measurement": "viral RNA nadir", "setting": "[2]; 200 μM", "result": "10^3 copies/ml"},
      {"measurement": "reduction of viral RNA copies versus infected untreated controls", "setting": "[2]; 200 μM, 16-day treated cultures", "result": "reduced by three orders of magnitude"},
      {"measurement": "re-emergence of productive infection off-treatment", "setting": "[2]; 200 μM, after 90 days off-treatment", "result": "no re-emergence of productive infection"},
      {"measurement": "decline of viral copy number", "setting": "[2]; 200 μM, continuous treatment", "result": "falling by three logs"},
      {"measurement": "time to reach nadir of <10^3 copies/ml", "setting": "[2]; 200 μM, depending on isolate - primary cell combination", "result": "2-4 weeks"},
      {"measurement": "HIV-1 RNA rebound after drug discontinuation", "setting": "[2]; 200 μM, off drug, replenished cultures", "result": "viral RNA rebound is absent off drug; also recorded: did not rebound"},
      {"measurement": "viral RNA after continued observed decline", "setting": "[2]; 200 μM, post-treatment", "result": "< 10^2 copies/ml"},
      {"measurement": "p24 relative to controls", "setting": "[2]; 200 μM", "result": "≤ 10 % of controls"},
      {"measurement": "on-drug rate of viral RNA decline", "setting": "[2]; 200 μM, appears to continue up to five days post cessation", "result": "−0.04", "unit": "log10/ml/day"},
      {"measurement": "time for post-treatment rebound to reacquire set-point", "setting": "[2]; after cessation of 100 μM", "result": "≤ 72", "unit": "h"},
      {"measurement": "p24 expression and viral copy number", "setting": "[2]; below 100 μM", "result": "marginally affected"},
      {"measurement": "viral breakthrough", "setting": "[2]; month-long monotherapy", "result": "did not elicit viral breakthrough"},
      {"measurement": "number of infective virions produced", "setting": "[2]", "result": "undetectable levels"}
    ]},
    {"compound": "Cc1cn([C@H]2C[C@H](N=[N+]=[N-])[C@@H](CO)O2)c(=O)[nH]c1=O", "note": "[zidovudine]", "values": [
      {"measurement": "viral load decline on monotherapy", "setting": "HIV-1 [4]", "result": "−0.3", "unit": "log10"}
    ]}
  ]
}
